Test results taken from US7939494B2, “Method for administering GLP-1 molecules” (Emisphere Technologies, Inc., priority 2002, dated 2011).
Read-outs that look alike come from different tables or passages of the source. No end group written: not given here.

What was measured:
[1] = Pharmacokinetics of GLP-1 compound after oral gavage with delivery agent (subcutaneous control); format: in vivo, Male Sprague Dawley rats; details: rat
Experimental: A solution of Val^8-Glu^22-GLP-1 was prepared by dissolving the GLP-1 compound in distilled water to yield a concentration of 7 mg/mL. The pH was slowly raised to 10.5 with 2 N NaOH, followed by incubation at room temperature for 30 minutes. A volume of 1 M Tris buffer, pH 8.0 was added to give a final buffer concentration 20 mM Tris, and the pH adjusted to pH 7.8 with 1 N or 5 N HCl. The solution was then filtered through a low protein binding […] syringe filter (Millex GV, Millipore) and the concentration of the GLP-1 compound was determined by UV spectroscopy. The solution was diluted to a final concentration of 5.5 mg/mL using 20 mM Tris buffer, pH 7.8. The peptide solution was then stored in 1.0 mL aliquots at −70° C. until used.
Final formulations were freshly prepared approximately 30 minutes to 1 hour prior to in vivo dosing by combining 4.5 mL of the delivery agent with 0.5 mL of the GLP-1 compound. The final formulations were dosed by oral gavage at 2 mL/kg (1.1 mg/kg GLP-1 compound, 300 mg/kg delivery agent) with to Male Sprague Dawley rats that were fasted for 12 hours prior to dosing. A subcutaneous dose of the GLP-1 compound alone was used as a control (0.011 mg/kg).

[2] = Stability studies of delivery agents, HPLC after three days storage; format: physicochemical; details: prepared at 150 mg/mL
Experimental: Stability studies were conducted for delivery agent numbers 9, 15, and 40. The delivery agents were freshly prepared as described above respectively to achieve the desired concentration of 150 mg/mL. The samples were divided into three 2 mL aliquots and stored at −20° C., 4° C., and ambient for three days. HPLC assay development and analyses were performed at the end of the storage period.

[3] = Solubility of delivery agents at desired formulation concentration; format: physicochemical; details: for solubility at the desired concentration of 150 mg/mL: 0.1 N NaOH base, further base to pH 11.5, and cosolvents
Experimental: Approximately 600 mg of delivery agent number 15 was weighed into Type I glass vials to which 3 mL of base (0.1 N NaOH, pH 12.7) was added to achieve a final concentration of 200 mg/mL. The pH was adjusted to 7.1 and the concentration was estimated to be 171 mg/mL. Delivery agent number 15 was then diluted to 150 mg/mL with Milli-Q® water.
Delivery agents number 40 and 9 were insoluble at the desired concentration of 150 mg/mL when followed example 1. […] Cosolvents tested included ethanol, N-methylpyrrolidone, N,N-dimethylacetamide, N,N-dimethylformamide, glycofurol, ethoxydiol, propylene glycol, polyethyleneglycol 300, and polyvinylpyrrolidone.
However, for delivery agent number 40, 150 mg was weighed into a Type I vial, to which 1 mL of Milli-Q® water was added, and the pH adjusted with 10 N NaOH.
(§1) Approximately 1.7 mL of suspending agent was added to a Type I glass vial containing 300 mg of delivery agent number 9. The preparation was cooled on ice for 3 minutes, followed by probe sonication on ice for 30 minutes using a Misonix Sonicator® Ultrasonic Processor XL ( 3/16th inch microtip). […] The formulation was then diluted to 150 mg/mL with the suspending agent.

[4] = Mean particle size of delivery agent suspension (Coulter LS Particle Size Analyzer); format: physicochemical; details: suspension in 4% w/v Klucel
Experimental: as §1

[5] = Peptide A 1.1 mg/kg + delivery agent 300 mg/kg, oral gavage, Tris suspension
[6] = Peptide A 1.1 mg/kg + delivery agent 300 mg/kg, oral gavage, Klucel suspension
[7] = Peptide A 1.1 mg/kg + delivery agent 300 mg/kg, oral gavage, Tris solution
[8] = stored at ambient for three days
[9] = stored at −20° C. for three days
[10] = Val8-Glu22-GLP-1 1.1 mg/kg + delivery agent 300 mg/kg, oral gavage, solution
[11] = Peptide A alone, no delivery agent, Tris solution, subcutaneous control 0.011 mg/kg

O=C([O-])Cc1ccc(NC(=O)c2ccccc2O)cc1.[Na+] [Delivery agent 21]
AUC [1, 5]: 57166 pg·min/mL

COc1ccc(C(=O)NCCCCCCCN(C)C)c(O)c1 [Delivery agent 16]
AUC [1, 6]: 19972 pg·min/mL

O=C(O)CCCCCCCNC(=O)c1ccccc1O [Delivery agent 5]
AUC [1, 5]: 40984 pg·min/mL

O=C(O)CCCCCCCCCNC(=O)c1ccccc1O [Delivery agent 6]
AUC [1, 5]: 37926 pg·min/mL

O=C(O)CCCCCCc1nnc(-c2ccccc2)o1 [Delivery agent 53]
AUC [1, 5]: 337360 pg·min/mL

O=C(O)CCCCCCCNC(=O)c1ccccn1 [Delivery agent 32]
AUC [1, 5]: 130175.6 pg·min/mL

O=C(O)CCCCCCCOc1cccc(O)c1 [Delivery agent 27]
AUC [1, 6]: 299137.2 pg·min/mL

O=C(O)CCCc1ccc(NC(=O)C2CCCCC2)cc1 [Delivery agent 44]
AUC [1, 7]: 55671 pg·min/mL

CC(C)[C@H](NC(=O)C1CCCCC1)C(=O)O [Delivery agent 48]
AUC [1, 7]: 6068.5 pg·min/mL

CN(C)c1ccc(C(=O)Nc2ccc(CCCC(=O)O)cc2)cc1 [Delivery agent 24]
AUC [1, 7]: 21559.2 pg·min/mL

CN(CCCCCCCC(=O)O)C(=O)c1ccccc1 [Delivery agent 3]
AUC [1, 7]: 237422.3 pg·min/mL

CC(C)C[C@H](NC(=O)C1CCCCC1)C(=O)O [Delivery agent 45]
AUC [1, 7]: 13468.0 pg·min/mL

CN(C)CCCCCCNC(=O)c1ccccc1O [Delivery agent 7]
AUC [1, 7]: 204611 pg·min/mL

Cc1cccc(C(=O)NCCCCCCCC(=O)[O-])c1[O-].[Na+].[Na+] [Delivery agent 12]
AUC [1, 6]: 35239 pg·min/mL

O=C(O)CCCCCCCNC(=O)c1cc(Cl)ccc1O [Delivery agent 9]
Stability Data: delivery agent concentration ([2]; stored at 4° C. for three days): 148.6 mg/mL | Stability Data: delivery agent concentration [2, 8]: 146.0 mg/mL | Stability Data: delivery agent concentration [2, 9]: 153.2 mg/mL | solubility at the desired concentration of 150 mg/mL [3]: insoluble | aqueous solubility ([3]; aqueous): aqueous insolubility | mean particle size before sonication [4]: 48 μm | mean particle size after sonication ([4]; probe sonication 30 minutes, pH 7.98): 8 μm | AUC ([1]; Val8-Glu22-GLP-1 1.1 mg/kg + delivery agent 300 mg/kg, oral gavage, Klucel suspension): 28144 ± 38576 pg·min/mL

CC(=O)c1ccccc1OCCCCCCCC(=O)[O-].[Na+] [Delivery agent 29]
AUC [1, 7]: 62303 pg·min/mL

CC(=O)c1ccccc1OCCCCCCCC(=O)O [Delivery agent 28]
AUC [1, 7]: 59543 pg·min/mL | AUC [1, 5]: 13116 pg·min/mL

O=C(O)[C@@H](NS(=O)(=O)c1ccccc1)c1ccccc1 [Delivery agent 38]
AUC [1, 7]: 5669 pg·min/mL

COc1cc(O)ccc1C(=O)NCCCCCCCC(=O)O [Delivery agent 14]
AUC [1, 7]: 160066.6 pg·min/mL

CNC(=O)c1ccccc1OCCCCCCCC(=O)O [Delivery agent 31]
AUC [1, 7]: 30164 pg·min/mL

O=C(O)CCCCc1nnc(-c2ccccc2O)o1 [Delivery agent 54]
AUC [1, 6]: 218240.8 pg·min/mL | AUC [1, 5]: 684087.3 pg·min/mL

CC(=O)c1ccccc1OCc1ccc(C(=O)O)cc1 [Delivery agent 30]
AUC [1, 7]: 35259 pg·min/mL

COc1ccc(C(=O)NCCCCCCCC(=O)[O-])c([O-])c1.[Na+].[Na+] [Delivery agent 15]
Stability Data: delivery agent concentration ([2]; stored at 4° C. for three days): 138.2 mg/mL | Stability Data: delivery agent concentration [2, 8]: 137.4 mg/mL | Stability Data: delivery agent concentration [2, 9]: 135.5 mg/mL | AUC [1, 7]: 254291 pg·min/mL | AUC ([1]; Peptide B + delivery agent, oral gavage, Tris solution): 82656 pg·min/mL | AUC [1, 10]: 254291 ± 129387 pg·min/mL

O=C(O)CCCCCCCOc1ccccc1O [Delivery agent 26]
AUC [1, 7]: 113480.1 pg·min/mL

O=C(N[C@H](C(=O)O)c1ccccc1)c1ccccc1 [Delivery agent 55]
AUC [1, 7]: 20177.7 pg·min/mL

O=C(O)CCCCCCCNC(=O)/C=C/c1ccccc1F [Delivery agent 51]
AUC [1, 7]: 10838 pg·min/mL

COc1ccccc1C(=O)Nc1ccc(CCCC(=O)O)cc1 [Delivery agent 23]
AUC [1, 7]: 15747 pg·min/mL

O=C(O)CCCCCCCNC(=O)C1CCCCC1 [Delivery agent 43]
AUC [1, 5]: 7281 pg·min/mL

O=C(N[C@@H](Cc1ccccc1)C(=O)O)c1ccccc1 [Delivery agent 56]
AUC [1, 7]: 48324.4 pg·min/mL

O=C(O)CCCCCCCNC(=O)c1ccncc1 [Delivery agent 34]
AUC [1, 5]: 6964.2 pg·min/mL

O=C(O)c1ccc(NS(=O)(=O)c2ccccc2)cc1 [Delivery agent 39]
AUC [1, 7]: 6087 pg·min/mL

CN(CCCCCCCC(=O)O)C(=O)c1ccccc1O [Delivery agent 8]
AUC [1, 7]: 173548.6 pg·min/mL

O=C(O)CCCCCCCNS(=O)(=O)c1ccccc1 [Delivery agent 36]
AUC [1, 7]: 42036 pg·min/mL

O=C(N[C@@H](Cc1ccccc1)C(=O)O)C1CCCCC1 (stereo in doubt) [Delivery agent 46]
AUC ([1]; Peptide A 1.1 mg/kg + delivery agent 300 mg/kg, oral gavage, Klucel solution): 4789.7 pg·min/mL | AUC [1, 7]: 19304.1 pg·min/mL

CN(c1ccc(CCCC(=O)O)cc1)S(=O)(=O)c1ccccc1 [Delivery agent 41]
AUC [1, 7]: 21679.1 pg·min/mL

O=C(O)CCCc1ccc(NS(=O)(=O)c2ccccc2)cc1 [Delivery agent 40]
Stability Data: delivery agent concentration ([2]; stored at 4° C. for three days): 135.1 mg/mL | Stability Data: delivery agent concentration [2, 8]: 135.3 mg/mL | Stability Data: delivery agent concentration [2, 9]: 134.0 mg/mL | solubility at the desired concentration of 150 mg/mL [3]: insoluble | solution concentration achieved ([3]; Milli-Q water, pH adjusted with 10 N NaOH, pH 8.22): 150 mg/mL | AUC [1, 7]: 94215 pg·min/mL | AUC [1, 10]: 94215 ± 66732 pg·min/mL

HVEGTFTSDVSSYLEEQAAKEFIAWLVKGRG [A]
AUC [1, 11]: 93635 pg·min/mL | Cmax [1, 11]: 3.781 ng/mL | Tmax [1, 11]: 10 ± 0 min | AUC ([1]; male, Sprague Dawley, in vivo, sc, GLP-1 compound alone, solution, subcutaneous control 0.011 mg/kg, read-out: AUC (converted)): 93600 pg·min/mL | Cmax ([1]; male, Sprague Dawley, in vivo, sc, GLP-1 compound alone, solution, subcutaneous control 0.011 mg/kg, read-out: Cmax): 3.78 ± 1.1 ng/mL | Tmax ([1]; male, Sprague Dawley, in vivo, sc, GLP-1 compound alone, solution, subcutaneous control 0.011 mg/kg, read-out: Tmax (converted)): 10 min

O=C(O)CCCCCCCNC(=O)c1ccccc1 [Delivery agent 2]
AUC [1, 7]: 7202 pg·min/mL

O=C(N[C@@H](Cc1ccccc1)C(=O)O)c1ccccc1O [Delivery agent 20]
AUC [1, 5]: 21948 pg·min/mL

CN(C(=O)c1ccccc1)c1ccc(CCCC(=O)[O-])cc1.[Na+] [Delivery agent 19]
AUC [1, 5]: 290106.4 pg·min/mL
